Consider 13 molecules from patent publication US8163728B2, “Pyrazoles” (Hoffmann-La Roche Inc., priority 2009, dated 2012).

This assay deals with T1, GABA A α5 (Homo sapiens, UniProt P18507+P31644).
T1 construct: expressed in transfected cells; host or cells: HEK293 cells, transiently transfected; membranes prepared from cell pellets
The assay is described as follows: [3H]flumazenil competition binding, human GABA A α5β3γ2 receptors in HEK293 cell membranes. Particulars: human receptor α5β3γ2 transiently transfected in HEK293; 0.5 nM [3H]flumazenil; 1 hour at 4° C.; means of two determinations; read-out: hKi GABA A α5. The essentials: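 Competition with [3H]flumazenil for binding to membranes of HEK293 cells transiently expressing human α5β3γ2, in Krebs-tris buffer pH 7.5. Incubated to equilibrium 1 h at 4 °C, filtered and scintillation-counted; Ki values are means of two determinations.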

Regarding `Cc1onc(-c2ccc(F)cc2)c1CNc1cc(C(=O)N2CC3(COC3)C2)n(C)n1` [Example 149, (5-{[3-(4-Fluoro-phenyl)-5-methyl-isoxazol-4-ylmethyl]-amino}-2-methyl-2H-pyrazol-3-yl)-(2-oxa-6-aza-spiro[3.3]hept-6-yl)-methanone], the Ki worked out at 67.5 nM. In the case of `Cn1nc(OCc2c(-c3ccc(F)cc3)noc2CO)cc1C(=O)N1CC2(COC2)C1` [Example 99, {5-[3-(4-Fluoro-phenyl)-5-hydroxymethyl-isoxazol-4-ylmethoxy]-2-methyl-2H-pyrazol-3-yl}-(2-oxa-6-aza-spiro[3.3]hept-6-yl)-methanone], the Ki was 24 nM. In the case of `Cc1onc(-c2ccccn2)c1CNc1cc(C(=O)NC(C)C)n(C)n1` [Example 159, N-isopropyl-1-methyl-3-((5-methyl-3-(pyridin-2-yl)isoxazol-4-yl)methylamino)-1H-pyrazole-5-carboxamide] it was 39.9 nM; in that of `Cc1onc(-c2ccc(F)cc2)c1COc1cc(C(=O)NC(C)(C)CO)n(C)n1` [Example 55, 5-[3-(4-Fluoro-phenyl)-5-methyl-isoxazol-4-ylmethoxy]-2-methyl-2H-pyrazole-3-carboxylic acid (2-hydroxy-1,1-dimethyl-ethyl)-amide], 29.6 nM.

`Cc1onc(-c2ccc(F)cc2)c1/C=C\c1cc(C(=O)NC(C)CO)n(C)n1` (stereo not shown) [Example 121, 5-{(Z)-2-[3-(4-Fluoro-phenyl)-5-methyl-isoxazol-4-yl]vinyl}-2-methyl-2H-pyrazole-3-carboxylic acid (2-hydroxy-1-methyl-ethyl)-amide]: the Ki amounted to 49.6 nM. On to `Cc1onc(-c2ccc(F)cc2)c1/C=C\c1cc(C(=O)NC(C)C)n(C)n1` [Example 120, 5-{(Z)-2-[3-(4-Fluoro-phenyl)-5-methyl-isoxazol-4-yl]-vinyl}-2-methyl-2H-pyrazole-3-carboxylic acid isopropylamide], for which the Ki amounted to 28 nM. Take `CCCCc1noc(C)c1COc1cc(C(=O)NCCO)n(C)n1` [Example 85, 5-(3-Butyl-5-methyl-isoxazol-4-ylmethoxy)-2-methyl-2H-pyrazole-3-carboxylic acid (2-hydroxy-ethyl)-amide]: the Ki worked out at 27.6 nM. Next, `Cc1onc(-c2ccc(F)cc2)c1COc1cc(C(=O)N[C@@H]2CCCC2O)n(C)n1` (single isomer, unassigned; (+)) [Example 74]: 2 nM; `Cc1onc(-c2ccccc2)c1COc1cc(C(N)=O)[nH]n1` [Example 7, 5-(5-Methyl-3-phenyl-isoxazol-4-ylmethoxy)-2H-pyrazole-3-carboxylic acid amide]: 36.3 nM. For `Cc1onc(-c2ccc(F)cn2)c1CNc1cc(C(=O)NC(C)C)n(C)n1` [Example 163, 3-((3-(5-Fluoropyridin-2-yl)-5-methylisoxazol-4-yl)methylamino)-N-isopropyl-1-methyl-1H-pyrazole-5-carboxamide], the Ki was 99.5 nM. Consider `Cc1onc(-c2ccc(F)cc2)c1CNc1cc(C(=O)NC(C)C)[nH]n1` [Example 154, 5-{[3-(4-Fluoro-phenyl)-5-methyl-isoxazol-4-ylmethyl]-amino}-2H-pyrazole-3-carboxylic acid isopropylamide], for which the Ki amounted to 13 nM. In the case of `Cc1onc(-c2ccc(F)cc2)c1CNc1cc(C(=O)NC2CCOCC2)[nH]n1` [Example 156, 5-{[3-(4-Fluoro-phenyl)-5-methyl-isoxazol-4-ylmethyl]-amino}-2H-pyrazole-3-carboxylic acid (tetrahydro-pyran-4-yl)-amide] it was 3.9 nM; in that of `Cc1onc(-c2ccc(F)cc2)c1/C=C/c1cc(C(=O)N2CC3(COC3)C2)[nH]n1` [Example 137, (5-{(E)-2-[3-(4-Fluoro-phenyl)-5-methyl-isoxazol-4-yl]vinyl}-2H-pyrazol-3-yl)-(2-oxa-6-aza-spiro[3.3]hept-6-yl)-methanone], 1.4 nM.
